The METLIN SMRT retention time set (Domingo-Almenara et al. 2019)

Assay: gradient 5% acetonitrile 3 min, to 50% in 2 min, to 85% in 15 min, held 3 min, 100 µL/min
Conditions: column: Zorbax Extend-C18 2.1 x 50 mm; eluents: water / acetonitrile, 0.1% formic acid
In short: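 Using water and acetonitrile that each contained 0.1% formic acid, mixtures of ~100 pure standards were separated at 100 μL/min on a Zorbax Extend-C18 column (2.1 × 50 mm, 1.8 μm). The HPLC fed a quadrupole time-of-flight mass spectrometer working in positive and negative ionization mode, with dead and dwell volumes of 40 μL and 900 μL. Data were acquired over 3 months. Retention time was read from computationally picked adduct peaks after manual inspection of each.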

| Structure (SMILES) | RP-LC retention time [s] |
| --- | --- |
| O=C(NCCCN1CCOCC1)C1CCCN(c2nc3ccccc3n(Cc3ccccc3)c2=O)C1 (stereo not given) | 720 |
| COC(=O)c1ccc(CN2CC(=O)N3CCCC3C2=O)cc1 (stereo not given) | 616 |
| CCOc1ccc(C(=O)N2CCCN(c3cc(-c4ccc(Br)cc4)[nH]n3)CC2)cc1OCC | 853 |
| Cc1cccc(-c2noc(Cn3ncn4nc(-c5ccc(Br)cc5)cc4c3=O)n2)c1 | 1260 |
| Cc1ccc(NC(=O)CSc2ccc(N3CCCC(C(=O)NC4CC4)C3)nn2)c(Cl)c1 (stereo not given) | 705 |
| Cc1ccc(S(=O)(=O)N2CCc3nc(NC(=O)c4ccnn4C)sc3C2)cc1 | 860 |
| CCC(C)C(NC(=O)c1ccc(C(C)C)cc1)C(=O)Nc1nc2ccccc2[nH]1 (stereo not given) | 856 |
| COCCCNC(=O)CCC(=O)N1CCCn2nc(-c3cn(C)c4ccccc34)cc21 | 670 |
| O=C(CN1CCN(Cc2ccc(F)cc2)C1=O)NCc1ccc(F)cc1F | 809 |
| O=C(Nc1ccc(Cl)c(Cl)c1)N1CCN(c2ncc(C(F)(F)F)cc2Cl)CC1 | 940 |
| CCCn1c(=O)c2cc(C(=O)N3CCN(c4ccccc4)CC3)nn2c2ccccc21 | 1030 |
| COc1ccc(CN2C=C(C(=O)OCc3nc(C4CC4)no3)C(C)=NS2(=O)=O)cc1 | 972 |
| CNC(=O)CCC(=O)N1c2ccccc2NC2=C(C(=O)CC(C)(C)C2)C1c1ccccc1 (stereo not given) | 686 |
| Cc1ccc(C(=O)N2C(C(=O)NCc3ccco3)COC23CCN(C(=O)C(C)(C)C)CC3)cc1 (stereo not given) | 756 |

The remaining lines, values ahead:

| RP-LC retention time [s] | Structure (SMILES) |
| --- | --- |
| 727 | CC(C)CCNC(=O)C1(C)Cn2nc(C(=O)NCc3ccc(F)cc3)cc2C(=O)N1C (stereo not given) |
| 1050 | Cc1ccc(-c2ccc(=O)n(Cc3noc(C(=O)N4CCC(C)CC4)n3)n2)cc1C |
| 930 | CCCN(CC1CCOC1)S(=O)(=O)Cc1ccccc1Cl (stereo not given) |
| 1060 | Cc1csc(-c2cc(S(=O)(=O)Nc3ccc(Cl)cc3)c(C)s2)n1 |
| 684 | O=C(Nc1ccc(F)cc1)Oc1ccc[nH]c1=O |
| 1290 | COc1ccc(C)cc1NC(=O)c1nc(C2CCC2)oc1C |
| 626 | COc1ccc(Cc2nc(-c3ccc4c(c3)ncn4CCN3CCCCC3)no2)cc1 |
| 970 | Cn1c(=O)sc2cc(S(=O)(=O)N3CCC(C(=O)Nc4cccc(C(F)(F)F)c4)CC3)ccc21 |
| 878 | Cc1ccc(CNC(=O)C2(C)CCCN(C(=O)NCc3ccccc3)C2)cc1 (stereo not given) |
| 624 | Cc1ccnc(N2CCC(C(=O)NCc3ccco3)CC2)n1 |
| 1240 | O=C1CN(S(=O)(=O)c2ccc(F)c(Cl)c2)CC2(CCCCC2)N1C1CCCC1 |
| 1040 | COc1ccc(C(=O)Nc2nc(-c3ccccc3)cs2)cc1 |
| 967 | Cc1ccc(N2CC(c3nc4ccccc4n3CC(=O)N(CC(C)C)CC(C)C)CC2=O)cc1 (stereo not given) |
| 733 | CC(=O)N1c2ccc(S(=O)(=O)N3CCC(C(=O)NC(C)c4ccccc4)CC3)cc2CC1C (stereo not given) |
| 674 | CCCNC(=O)C1CCN(c2ccc(SCC(=O)Nc3cccc(CC)c3)nn2)CC1 |
| 1030 | Cn1ncc2c(N3CCCCC3)nc(C(=O)N3CCN(c4ccccc4Cl)CC3)nc21 |
| 621 | Cc1cc(C)n(CCC(=O)NCC23CCCC=C2NC(=O)CC3)n1 (stereo not given) |
| 827 | COC(=O)c1nc(NC(=O)Cn2nc3c(cc2=O)CCCC3)sc1-c1ccccc1 |
| 1230 | O=C(Nc1cccc(Cl)c1)c1nn2c(C(F)(F)F)cc(-c3ccco3)nc2c1Cl |
| 748 | CC(=O)N1CCc2cc(N3CC(C(=O)NCc4ccccc4C(F)(F)F)CC3=O)ccc21 (stereo not given) |
| 746 | CCS(=O)(=O)N1CCCc2cc(C(=O)NC(C)C)ccc21 |
